The target in assay [1] is PIK3C2B (Homo sapiens, UniProt O00750). As to conditions: cited from earlier work; for IC50: read-out: IC50 for PIK3C2B.
Assay [2] relates to 395 kinases. The assay is described as follows: KINOMEscan competitive binding profiling assay of 395 kinases (Ambit Biosciences). The following applies: single concentration 10 μM. An excerpt:
Initially, 3-{[(3S)-4-(6,6-dimethyl-4-oxo-4,5,6,7-tetrahydro[1,3]thiazolo[5,4-c]pyridin-2-yl)morpholin-3-yl]methyl}-N,N,1-trimethyl-1H-indole-5-carboxamide (referred as Test Compound here in Example 2) was screened against kinase targets representing diverse protein kinase family members for competitive binding using a commercially available profiling assay of 395 kinases (Ambit Biosciences, KINOMEscan), and the compound was found most likely to inhibit the kinase activity of PI3Ks compared to other kinases.

The target in assay [3] is PIK3C2A (PI3K-C2 alpha) (Homo sapiens, UniProt O00443). The assay is described as follows: SelectScreen Adapta universal kinase assay, PIK3C2A. The following applies: [ATP] 10 uM; for inhibition at 0.00101 µM / inhibition at 0.00303 µM / inhibition at 0.0091 µM / inhibition at 0.0273 µM / inhibition at 0.082 µM / inhibition at 0.247 µM / inhibition at 0.741 µM / inhibition at 2.222 µM / inhibition at 6.667 µM / inhibition at 20 µM: PIK3C2A; for inhibition at 0.00101 µM: Test Compound 1.01 nM; for inhibition at 0.00303 µM: Test Compound 3.03 nM; for inhibition at 0.0091 µM: Test Compound 9.1 nM; for inhibition at 0.0273 µM: Test Compound 27.3 nM; for inhibition at 0.082 µM: Test Compound 82 nM; for inhibition at 0.247 µM: Test Compound 247 nM; for inhibition at 0.741 µM: Test Compound 741 nM; for inhibition at 2.222 µM: Test Compound 2222 nM; for inhibition at 6.667 µM: Test Compound 6667 nM; for inhibition at 20 µM: Test Compound 20000 nM. The class given is biochemical. The protocol:
(§1) Kinase activities of PIK3C2B (and PIK3C2A for comparison) were obtained using the SelectScreen™ Profiling Service (Invitrogen) based on Adapta™ universal kinase assay protocol and conditions (Invitrogen Corporation, Cat. No. PV5099).
(§2) Adapta™ universal kinase assay: The assay itself can be divided into two phases: a kinase reaction phase, and an ADP detection phase. In the kinase reaction phase, all components required for the kinase reaction are added to the well, and the reaction is allowed to incubate for 60 minutes. After the reaction, a detection solution consisting of a europium labeled anti-ADP antibody, an Alexa Fluor™ 647 labeled ADP tracer, and EDTA (to stop the kinase reaction) is added to the assay well. ADP formed by the kinase reaction (in the absence of an inhibitor) displaces the Alexa Fluor® 647 labeled ADP tracer from the antibody, resulting in a decrease in the TR-FRET signal. In the presence of an inhibitor, the amount of ADP formed by the kinase reaction is reduced, and the resulting intact antibody-tracer interaction results in a high TR-FRET signal. ADP formation is determined by calculating the emission ratio from the assay well.
(§3) The emission ratio is calculated by dividing the intensity of the tracer (acceptor) emission by the intensity of the Eu (donor) emission at 615 nm as shown in the equation below. Emission Ratio=AlexaFluor™647 Emission (665 nm)/Europium Emission (615 nm).
(§4) The Test Compound was screened in 1% DMSO (final solution). For 10-point titrations, 3-fold serial dilutions were conducted from the starting concentrations of 20,000 nM for PIK3C2A and 1,000 nM for PIK3C2B.
For PIK3C2A (PI3K-C2 alpha), the 2×PIK3C2A (PI3K-C2 alpha)/PI mixture was prepared in a Kinase Buffer including […] pH 7.5, 200 mM NaCl, 0.06% CHAPS, 6 mM MgCl2, 2 mM EGTA. The final 10 μL Kinase Reaction has 8 ng PIK3C2A (PI3K-C2 alpha) and 100 μM PI in 57.5 mM HEPES pH 7.5, 100 mM NaCl, 0.03% CHAPS, 3 mM MgCl2, 1 mM EGTA. After the 1 hour Kinase Reaction incubation, 5 μL of Detection Mix was added.
(§5) All ATP Solutions were diluted to a 4× working concentration in water. ATP Km (apparent) was previously determined using a radiometric assay except when no substrate is available in which case an Adapta™ assay was conducted.
(§6) The Detection Mix was prepared in TR-FRET Dilution Buffer. The Detection mix consists of EDTA (30 mM), Eu-anti-ADP antibody (30 nM) and ADP tracer. The detection mix contains the EC60 concentration of tracer for 5-100 μM ATP.
(§7) Adapta™ assay protocol: 2.5 μL 4× Test Compound or 100 nL 100× plus 2.4 μL kinase buffer was dispensed onto white 384-well small volume polystyrene plate (Corning, Cat. No. 3674). Then 2.5 μL of 4×ATP Solution followed by 5 μL of 2× Substrate/Kinase Mixture were added. The final 10 μL Kinase Reaction has 8 ng PIK3C2B (PI3K-C2 beta) and 100 μM PI in 57.5 mM HEPES pH 7.5, 100 mM NaCl, 0.03% CHAPS, 3 mM MgCl2, 1 mM EGTA After 30 seconds plate shake and 2-minutes centrifugation at 1000×g for 2 minutes, Kinase Reaction incubation was performed at room temperature for 60 minutes.
(§8) After the Kinase Reaction incubation, 5 μL of Detection Mix was added. After 30 seconds plate shake and 2-minutes centrifugation at 1000×g for 2 minutes, Detection Mix equilibration incubation was performed at room temperature for 60 minutes.
(§9) Adapta™ data analysis: The fluorescent data obtained was analyzed using a data fitting program, XLfit (ID Business Solutions, Guildford, UK). IC50 values were derived by fitting a sigmoidal dose-response curve to a plot of assay readout over inhibitor concentration.

Assay [4] concerns the target PIK3C2B (PI3K-C2 beta) (Homo sapiens, UniProt O00750). The assay is described as follows: SelectScreen Adapta universal kinase assay, PIK3C2B. The assay is classed as biochemical. As to conditions: for inhibition at 51 pM / inhibition at 0.000153 µM / inhibition at 0.00046 µM / inhibition at 0.00137 µM / inhibition at 0.0041 µM / inhibition at 0.0123 µM / inhibition at 0.037 µM / inhibition at 0.111 µM / inhibition at 0.333 µM / inhibition at 1 µM: PIK3C2B; for inhibition at 51 pM: Test Compound 0.051 nM; for inhibition at 0.000153 µM: Test Compound 0.153 nM; for inhibition at 0.00046 µM: Test Compound 0.46 nM; for inhibition at 0.00137 µM: Test Compound 1.37 nM; for inhibition at 0.0041 µM: Test Compound 4.1 nM; for inhibition at 0.0123 µM: Test Compound 12.3 nM; for inhibition at 0.037 µM: Test Compound 37 nM; for inhibition at 0.111 µM: Test Compound 111 nM; for inhibition at 0.333 µM: Test Compound 333 nM; for inhibition at 1 µM: Test Compound 1000 nM. The protocol: as §1, §2, §3, §4
For PIK3C2B (PI3K-C2 beta), the 2×PIK3C2B (PI3K-C2 beta)/PI mixture was prepared in 100 mM HEPES pH 7.5, 200 mM NaCl, 0.06% CHAPS, 6 mM MgCl2, 2 mM EGTA. The final 10 μL Kinase Reaction has 8 ng PIK3C2B (PI3K-C2 beta) and 100 μM PI in 57.5 mM HEPES pH 7.5, 100 mM NaCl, 0.03% CHAPS, 3 mM MgCl2, 1 mM EGTA. After the 1 hour Kinase Reaction incubation, 5 μL of Detection Mix was added.
as §5, §6, §7, §8, §9

For assay [5], the target named is PI3Kβ (Homo sapiens, UniProt P42338). As to conditions: literature value; read-out: IC50 for other PI3Ks: PI3Kβ; cited from earlier work.
Setting [6] is: [ATP] 10 uM, read-out: % Inhibition point 1.
Setting [7] is: [ATP] 10 uM, read-out: % Inhibition point 2.

Results on three compounds are retold here after patent US20220202824A1, “Methods for Treating Centronuclear Myopathy” (Stemline Therapeutics, Inc., priority 2018, published 2022).

Like-named read-outs stand apart in the source and are kept apart here.

As usually defined, the IC50 is the concentration at which inhibition is half-maximal. One may read the inhibition as the drop in the measured response relative to a control, in per cent.

Chain of PIK3C2B (PI3K-C2 beta) (O00750 whole entry): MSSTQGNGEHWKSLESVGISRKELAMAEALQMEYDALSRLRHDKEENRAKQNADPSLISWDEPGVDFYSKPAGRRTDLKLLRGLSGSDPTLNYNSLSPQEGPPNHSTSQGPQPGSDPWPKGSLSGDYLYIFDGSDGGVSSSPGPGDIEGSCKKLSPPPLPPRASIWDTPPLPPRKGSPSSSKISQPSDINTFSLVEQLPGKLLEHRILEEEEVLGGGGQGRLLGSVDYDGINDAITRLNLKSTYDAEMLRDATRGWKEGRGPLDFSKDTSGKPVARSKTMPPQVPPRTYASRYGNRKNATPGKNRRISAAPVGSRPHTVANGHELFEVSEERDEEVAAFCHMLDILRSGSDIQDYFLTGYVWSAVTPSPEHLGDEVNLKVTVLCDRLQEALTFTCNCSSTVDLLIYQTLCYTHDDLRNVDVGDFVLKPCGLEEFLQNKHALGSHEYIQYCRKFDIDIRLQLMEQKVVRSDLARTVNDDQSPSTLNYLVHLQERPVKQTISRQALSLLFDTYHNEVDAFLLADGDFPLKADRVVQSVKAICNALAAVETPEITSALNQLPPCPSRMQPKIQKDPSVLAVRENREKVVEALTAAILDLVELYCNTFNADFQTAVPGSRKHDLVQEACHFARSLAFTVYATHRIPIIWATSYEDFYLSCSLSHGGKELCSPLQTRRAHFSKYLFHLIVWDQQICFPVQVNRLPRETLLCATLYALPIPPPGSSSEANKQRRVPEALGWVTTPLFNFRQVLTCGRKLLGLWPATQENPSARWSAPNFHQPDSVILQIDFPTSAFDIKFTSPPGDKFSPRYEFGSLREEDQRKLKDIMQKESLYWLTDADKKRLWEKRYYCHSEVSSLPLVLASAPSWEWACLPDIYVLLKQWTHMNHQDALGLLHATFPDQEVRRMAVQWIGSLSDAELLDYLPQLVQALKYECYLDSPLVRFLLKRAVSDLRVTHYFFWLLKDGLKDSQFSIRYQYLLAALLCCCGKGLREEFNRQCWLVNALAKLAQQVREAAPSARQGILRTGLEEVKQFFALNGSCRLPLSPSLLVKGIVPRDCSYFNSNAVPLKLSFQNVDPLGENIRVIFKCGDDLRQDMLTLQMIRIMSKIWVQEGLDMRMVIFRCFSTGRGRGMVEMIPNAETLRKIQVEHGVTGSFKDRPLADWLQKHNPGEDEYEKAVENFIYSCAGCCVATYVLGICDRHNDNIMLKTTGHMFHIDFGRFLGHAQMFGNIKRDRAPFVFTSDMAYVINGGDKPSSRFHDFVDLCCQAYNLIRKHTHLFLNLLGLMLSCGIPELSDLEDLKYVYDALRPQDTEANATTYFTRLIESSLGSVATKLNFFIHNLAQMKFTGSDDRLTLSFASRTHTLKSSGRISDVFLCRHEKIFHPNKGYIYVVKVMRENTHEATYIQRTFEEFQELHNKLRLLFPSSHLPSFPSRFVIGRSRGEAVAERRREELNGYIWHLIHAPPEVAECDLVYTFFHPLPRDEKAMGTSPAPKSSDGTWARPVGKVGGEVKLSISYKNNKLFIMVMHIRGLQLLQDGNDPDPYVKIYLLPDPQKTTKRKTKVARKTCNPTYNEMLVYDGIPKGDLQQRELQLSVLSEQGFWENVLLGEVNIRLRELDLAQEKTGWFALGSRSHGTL
Chain of PIK3C2B (O00750 whole entry): as above
Chain of PIK3C2A (PI3K-C2 alpha) (O00443 whole entry): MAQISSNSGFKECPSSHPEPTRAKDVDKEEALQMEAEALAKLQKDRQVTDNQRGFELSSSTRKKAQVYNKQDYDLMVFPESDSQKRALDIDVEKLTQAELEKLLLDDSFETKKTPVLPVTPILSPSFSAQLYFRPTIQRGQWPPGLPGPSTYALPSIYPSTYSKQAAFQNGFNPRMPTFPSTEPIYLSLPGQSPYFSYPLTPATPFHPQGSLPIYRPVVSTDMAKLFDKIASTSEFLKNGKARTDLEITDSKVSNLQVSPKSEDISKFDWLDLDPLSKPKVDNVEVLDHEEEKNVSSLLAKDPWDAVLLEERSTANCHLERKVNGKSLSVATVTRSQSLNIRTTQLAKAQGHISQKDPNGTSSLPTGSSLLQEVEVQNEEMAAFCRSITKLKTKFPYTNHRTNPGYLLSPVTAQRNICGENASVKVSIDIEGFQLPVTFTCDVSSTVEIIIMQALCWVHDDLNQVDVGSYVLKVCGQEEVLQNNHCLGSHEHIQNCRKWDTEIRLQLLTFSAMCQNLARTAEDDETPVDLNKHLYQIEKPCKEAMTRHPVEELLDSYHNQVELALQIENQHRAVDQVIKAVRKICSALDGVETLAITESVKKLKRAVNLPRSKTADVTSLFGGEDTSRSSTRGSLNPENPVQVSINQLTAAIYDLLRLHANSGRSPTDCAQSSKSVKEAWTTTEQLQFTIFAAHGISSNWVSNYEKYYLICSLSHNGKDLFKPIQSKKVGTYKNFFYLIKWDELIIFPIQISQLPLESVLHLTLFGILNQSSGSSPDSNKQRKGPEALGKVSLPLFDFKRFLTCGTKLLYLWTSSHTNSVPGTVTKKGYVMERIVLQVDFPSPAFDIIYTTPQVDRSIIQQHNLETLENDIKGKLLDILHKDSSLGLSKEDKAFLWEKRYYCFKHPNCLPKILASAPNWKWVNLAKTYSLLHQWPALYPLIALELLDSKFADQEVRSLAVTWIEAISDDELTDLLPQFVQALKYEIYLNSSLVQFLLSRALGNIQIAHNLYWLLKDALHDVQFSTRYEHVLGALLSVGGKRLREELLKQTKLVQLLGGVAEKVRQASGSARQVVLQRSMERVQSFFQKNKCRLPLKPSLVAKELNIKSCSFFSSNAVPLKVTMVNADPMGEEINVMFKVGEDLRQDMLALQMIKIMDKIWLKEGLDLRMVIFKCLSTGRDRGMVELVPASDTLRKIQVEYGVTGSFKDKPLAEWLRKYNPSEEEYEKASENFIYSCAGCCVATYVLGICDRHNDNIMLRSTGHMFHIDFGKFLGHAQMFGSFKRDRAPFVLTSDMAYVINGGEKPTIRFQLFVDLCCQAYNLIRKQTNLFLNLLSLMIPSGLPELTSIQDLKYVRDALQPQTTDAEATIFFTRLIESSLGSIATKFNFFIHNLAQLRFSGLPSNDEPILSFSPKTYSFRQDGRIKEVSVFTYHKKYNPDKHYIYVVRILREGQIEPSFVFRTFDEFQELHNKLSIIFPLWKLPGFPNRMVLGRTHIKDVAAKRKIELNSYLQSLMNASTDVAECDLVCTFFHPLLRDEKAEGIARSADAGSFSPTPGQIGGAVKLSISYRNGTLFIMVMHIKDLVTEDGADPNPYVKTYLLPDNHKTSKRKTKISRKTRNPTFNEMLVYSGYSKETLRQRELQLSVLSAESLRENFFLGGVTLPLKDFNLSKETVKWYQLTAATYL

For the compound `CC[C@H](Nc1ncnc2[nH]cnc12)c1nc2cccc(F)c2c(=O)n1-c1ccccc1`, in assay [1], the IC50 was 1000 nM.
As for `CN(C)C(=O)c1ccc2c(c1)c(C[C@H]1COCCN1c1nc3c(s1)C(=O)NC(C)(C)C3)cn2C` [Test Compound, 3-{[(3S)-4-(6,6-dimethyl-4-oxo-4,5,6,7-tetrahydro[1,3]thiazolo[5,4-c]pyridin-2-yl)morpholin-3-yl]methyl}-N,N,1-trimethyl-1H-indole-5-carboxamide], the “hits in kinase binding screen” value in assay [2] is recorded as “no hits other than PI3Ks”. Also, in assay [3] (read-out: % Inhibition point 1), the inhibition at 0.00101 µM turned out to be 25%, the inhibition at 0.00303 µM is -24%, the inhibition at 0.0091 µM is -3% and the inhibition at 0.0273 µM was determined as 13%. In assay [3] (read-out: % Inhibition point 1), the inhibition at 0.082 µM stood at 0%, the inhibition at 0.247 µM was found to be 15%, the inhibition at 0.741 µM worked out at 17% and the inhibition at 2.222 µM came to 46%. In assay [3] (read-out: % Inhibition point 1), the inhibition at 6.667 µM was 55% and the inhibition at 20 µM stood at 81%. In assay [3] (read-out: % Inhibition point 2), the inhibition at 0.00101 µM was -12%, the inhibition at 0.00303 µM came to 3%, the inhibition at 0.0091 µM came to 16% and the inhibition at 0.0273 µM was -4%. In assay [3] (read-out: % Inhibition point 2), the inhibition at 0.082 µM amounted to 11%, the inhibition at 0.247 µM came to 6%, the inhibition at 0.741 µM came to 30% and the inhibition at 2.222 µM was 36%. Moreover, in assay [3] (read-out: % Inhibition point 2), the inhibition at 6.667 µM is 46% and the inhibition at 20 µM amounted to 78%. Also, the IC50 in assay [3] came out at 4300 nM. Besides, in assay [4] (PIK3C2B vs PIK3C2A IC50), the “selectivity over C2A (Class II isoform)” value is recorded as 449-fold selectivity over. In assay [4] (setting [6]), the inhibition at 51 pM came out at 16%, the inhibition at 0.000153 µM is -3%, the inhibition at 0.00046 µM amounted to 10% and the inhibition at 0.00137 µM came out at 21%. Also, in assay [4] (setting [6]), the inhibition at 0.0041 µM stood at 58%, the inhibition at 0.0123 µM stood at 61%, the inhibition at 0.037 µM worked out at 74% and the inhibition at 0.111 µM stood at 92%. In assay [4] (setting [6]), the inhibition at 0.333 µM is 94% and the inhibition at 1 µM is 93%. Moreover, in assay [4] (setting [7]), the inhibition at 51 pM is 17%, the inhibition at 0.000153 µM was found to be 8%, the inhibition at 0.00046 µM came out at 21% and the inhibition at 0.00137 µM is 33%. In assay [4] (setting [7]), the inhibition at 0.0041 µM was 27%, the inhibition at 0.0123 µM amounted to 49%, the inhibition at 0.037 µM was 82% and the inhibition at 0.111 µM amounted to 90%. In assay [4] (setting [7]), the inhibition at 0.333 µM turned out to be 93% and the inhibition at 1 µM turned out to be 95%. This compound yielded an IC50 in assay [4] ([ATP] 10 uM) of 9.57 nM.
Regarding `Cc1c(Cn2c(C)nc(=O)c3sc(N4CCOCC4)nc32)cccc1C(F)(F)F`, the figures for the IC50 in assay [5] and in assay [1] (literature value) were 6 nM and 1000 nM, respectively. In addition, the “selectivity in favor of PI3Kβ (Class I)” value in assay [1] (PI3Kβ over PIK3C2B) is given as 166-fold selectivity in favor of PI3Kβ (Class I) (Lin et al. ACS Med. Chem. Lett. 2012, 3, 524-529).
